Measured values published in patent US9833497B2, “Human originated EGF domain proteins and use of the same” (CHENGDU SOURCEBIO LIMITED-LIABILITY COMPANY, priority 2013, dated 2017).

Columns and labels:
Assay type in all cases: cell-based
[1] = tested on: Serratia marcescens; assay: MIC against Gram-negative bacteria: Serratia marcescens
How it was run: (§1)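 MIC = lowest concentration of recombinant protein showing no growth. Test proteins: purified human-derived EGF domain proteins, two-fold dilution series, three wells per concentration; inoculum 5×10^5 CFU/mL in LB; incubation 37° C with shaking at 175 rpm.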

[2] = tested on: Citrobacter diversus; assay: MIC against Gram-negative bacteria: Citrobacter diversus
How it was run: as §1

[3] = tested on: Proteus vulgaris; assay: MIC against Gram-negative bacteria: Proteus vulgaris
How it was run: as §1

[4] = tested on: Enterobacter cloacae; assay: MIC against Gram-negative bacteria: Enterobacter cloacae
How it was run: as §1

[5] = tested on: Aeromonas hydrophila; assay: MIC against Gram-negative bacteria: Aeromonas hydrophila
How it was run: as §1

[6] = tested on: E. coli BL21; assay: MIC against Gram-negative bacteria: E. coli BL21
How it was run: as §1

[7] = tested on: Pseudomonas aeruginosa; assay: MIC against Gram-negative bacteria: Pseudomonas aeruginosa
How it was run: as §1

[8] = tested on: Proteus mirabilis; assay: MIC against Gram-negative bacteria: Proteus mirabilis
How it was run: as §1

[9] = tested on: Moraxella catarrhalis; assay: MIC against Gram-negative bacteria: Moraxella catarrhalis
How it was run: as §1

[10] = tested on: Klebsiella pneumonia; assay: MIC against Gram-negative bacteria: Klebsiella pneumonia
How it was run: as §1

[11] = tested on: E. coli DH5α; assay: Antibacterial activity: MIC and growth curve against E. coli DH5α in 96-well plate; conditions: minimal inhibitory concentration against E. coli DH5α; 96-well plate, 5×10^5 CFU/mL, 37° C., judged after 8 h
How it was run: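 MIC taken as lowest protein level with no bacterial growth, tracked by A600 every 30 min during 37 °C, 175 rpm culture. Two-fold protein series 50-12.5 μg/mL final, triplicate wells, against 5×10^5 CFU/mL of LB-washed mid-log cells.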

[12] = 10 h cultivation at 37° C., 5×10^5 CFU/mL, two-fold serial dilution
[13] = S. marcescens, 10 h cultivation at 37° C., 5×10^5 CFU/mL
[14] = C. diversus, 10 h cultivation at 37° C., 5×10^5 CFU/mL
[15] = P. vulgaris, 10 h cultivation at 37° C., 5×10^5 CFU/mL
[16] = E. cloacae, 10 h cultivation at 37° C., 5×10^5 CFU/mL
[17] = A. hydrophila, 10 h cultivation at 37° C., 5×10^5 CFU/mL
[18] = E. coli BL21, 10 h cultivation at 37° C., 5×10^5 CFU/mL
[19] = P. aeruginosa, 10 h cultivation at 37° C., 5×10^5 CFU/mL
[20] = P. mirabilis, 10 h cultivation at 37° C., 5×10^5 CFU/mL
[21] = M. catarrhalis, 10 h cultivation at 37° C., 5×10^5 CFU/mL
[22] = K. pneumonia, 10 h cultivation at 37° C., 5×10^5 CFU/mL
[23] = 96-well plate, 5×10^5 CFU/mL, 37° C., 10 h

| Substance | MIC [11] | MIC (μg/mL) S. marcescens [1, 13] | MIC (μg/mL) C. diversus [2, 14] | MIC (μg/mL) P. vulgaris [3, 15] | MIC (μg/mL) E. cloacae [4, 16] | MIC (μg/mL) A. hydrophila [5, 17] | MIC (μg/mL) E. coli BL21 [6, 18] | MIC (μg/mL) P. aeruginosa [7, 19] | MIC (μg/mL) P. mirabilis [8, 20] | MIC (μg/mL) M. catarrhalis [9, 21] | MIC (μg/mL) K. pneumonia [10, 22] | also measured |
| --- | --- | --- | --- | --- | --- | --- | --- | --- | --- | --- | --- | --- |
| PRT1131 (RMPGCQHGTCHQPWQCICHSGWAGKFCD; listed as Homo sapiens) | 50 µg/mL | – | – | – | – | – | – | – | – | – | – | MIC S. marcescens [1, 12]: 12.5 µg/mL; MIC C. diversus [2, 12]: 12.5 µg/mL; MIC P. vulgaris [3, 12]: 50 µg/mL; MIC E. cloacae [4, 12]: 50 µg/mL; MIC A. hydrophila [5, 12]: 25 µg/mL; MIC E. coli BL21 [6, 12]: 12.5 µg/mL; MIC P. aeruginosa [7, 12]: 50 µg/mL; MIC P. mirabilis [8, 12]: 12.5 µg/mL; MIC M. catarrhalis [9, 12]: 50 µg/mL; MIC K. pneumonia [10, 12]: 12.5 µg/mL |
| PRT148 (LTDICSVSNGGCHPDASCSSTLGSLPLCTCLPGYTGN; listed as Homo sapiens) | 25 µg/mL | 50 µg/mL | 50 µg/mL | 12.5 µg/mL | 50 µg/mL | 12.5 µg/mL | 50 µg/mL | 25 µg/mL | 50 µg/mL | 12.5 µg/mL | 12.5 µg/mL | – |
| PRT907 (PSVSCEVAAQRQGVDVARLCQHGGLCVDAGNTHHCRCQAGYTGSYCE; listed as Homo sapiens) | 25 µg/mL | – | – | – | – | – | – | – | – | – | – | MIC ([1]; S. marcescens, 10 h cultivation at 37° C.): 12.5 µg/mL; MIC ([2]; C. diversus, 10 h cultivation at 37° C.): 12.5 µg/mL; MIC ([3]; P. vulgaris, 10 h cultivation at 37° C.): 25 µg/mL; MIC ([4]; E. cloacae, 10 h cultivation at 37° C.): 12.5 µg/mL; MIC ([5]; A. hydrophila, 10 h cultivation at 37° C.): 12.5 µg/mL; MIC ([6]; E. coli BL21, 10 h cultivation at 37° C.): 12.5 µg/mL; MIC ([7]; P. aeruginosa, 10 h cultivation at 37° C.): 12.5 µg/mL; MIC ([8]; P. mirabilis, 10 h cultivation at 37° C.): 25 µg/mL; MIC ([9]; M. catarrhalis, 10 h cultivation at 37° C.): 12.5 µg/mL; MIC ([10]; K. pneumonia, 10 h cultivation at 37° C.): 25 µg/mL |
| PRT769 (CNGVDHGCEFQCVSEGLSYRCLCPEGRQLQADGKSC; listed as Homo sapiens) | 12.5 µg/mL | 12.5 µg/mL | 12.5 µg/mL | 25 µg/mL | 12.5 µg/mL | 25 µg/mL | 12.5 µg/mL | 12.5 µg/mL | 12.5 µg/mL | 12.5 µg/mL | 25 µg/mL | – |
| PRT541 (CSCDLRGTLGGVAECQPGTGQCFCKPHVCGQACASCKDGFFGLDQADYFGCRS; listed as Homo sapiens) | 12.5 µg/mL | – | – | – | – | – | – | – | – | – | – | MIC against S. marcescens [1, 23]: 50 µg/mL; MIC against C. diversus [2, 23]: 12.5 µg/mL; MIC against P. vulgaris [3, 23]: 25 µg/mL; MIC against E. cloacae [4, 23]: 12.5 µg/mL; MIC against A. hydrophila [5, 23]: 50 µg/mL; MIC against E. coli BL21 [6, 23]: 50 µg/mL; MIC against P. aeruginosa [7, 23]: 100 µg/mL; MIC against P. mirabilis [8, 23]: 12.5 µg/mL; MIC against M. catarrhalis [9, 23]: 50 µg/mL; MIC against K. pneumonia [10, 23]: 50 µg/mL |
| PRT145 (DVNECEIYSGTPLSCQNGGTCVNTMGSYSCHCPPETYGPQCA; listed as Homo sapiens) | 12.5 µg/mL | 25 µg/mL | 12.5 µg/mL | 12.5 µg/mL | 12.5 µg/mL | 12.5 µg/mL | 12.5 µg/mL | 12.5 µg/mL | 25 µg/mL | 12.5 µg/mL | 12.5 µg/mL | – |
